Source: article PMC11995724, “Antibiotic target discovery by integrated phenotypic and activity-based profiling of electrophilic fragments” (Cell chemical biology, 2025)

Test: in vitro
Details: human, hek293t cells
Procedure: Mammalian cytotoxicity measurement was performed using Cell Titer-Glo 2.0 Cell Viability Assay (Promega, G9243) according to the manufacturer protocol. In brief, mammalian cells were seeded into 384-well white plates (Greiner, 781080) and incubated at 37°C for one day. Compounds from the Cys-Library were dispensed into the assay plate using epMotion 96. The plates were then incubated at 37°C for two days. An equal volume of Cell Titer-Glo 2.0 reagent was added into each well of the assay plate using epMotion 96 and incubated at 22°C for 10 min, followed by luminescence measurement using a Cytation 5 plate reader (BioTek).

Row | Compound | viability at 48 h, 25 µM [%]
1 | CC(=O)N1CCC(N(Cc2cncs2)C(=O)C(C)Cl)CC1 (stereo not drawn) [5-H21, N-(1-acetylpiperidin-4-yl)-2-chloro-N-[(1,3-thiazol-5-yl)methyl]propanamide] | 119
2 | CC(Cl)C(=O)Nc1cccc(Cl)c1 (stereo not drawn) [5-H22, 2-chloro-N-(3-chlorophenyl)propanamide] | 78
3 | CCN(CC)C(=O)c1cccc(NC(=O)CCl)c1 [5-I03, 3-(2-chloroacetamido)-N,N-diethylbenzamide] | 0.175
4 | O=C(CCl)Nc1cccc(OCc2ccccc2)c1 [5-I04, N-[3-(benzyloxy)phenyl]-2-chloroacetamide] | 0.885
5 | CCOC(=O)C1=C(C)NC(=O)N(C(=O)CCl)C1c1ccccc1 (stereo not drawn) [5-I05, ethyl 3-(2-chloroacetyl)-6-methyl-2-oxo-4-phenyl-1,2,3,4-tetrahydropyrimidine-5-carboxylate] | 44.7
6 | O=C(CCl)N(Cc1ccccc1)Cc1ccc(F)cc1 [5-I06, N-benzyl-2-chloro-N-[(4-fluorophenyl)methyl]acetamide] | 0.621
7 | CC(Cc1c[nH]c2cc(F)c(F)cc12)NC(=O)CCl (stereo not drawn) [5-I07, 2-chloro-N-[1-(5,6-difluoro-1H-indol-3-yl)propan-2-yl]acetamide] | 0.657
8 | CNC(=O)c1ccn(C2CCCN(C(=O)CCl)C2)n1 (stereo not drawn) [5-I08, 1-[1-(2-chloroacetyl)piperidin-3-yl]-N-methyl-1H-pyrazole-3-carboxamide] | 1.61
9 | Cc1cc(NS(=O)(=O)c2ccc(NC(=O)CCl)cc2)nc(C)n1 [5-I09, 2-chloro-N-{4-[(2,6-dimethylpyrimidin-4-yl)sulfamoyl]phenyl}acetamide] | 1.31
10 | CC(c1ccccc1F)N1CCCC(NC(=O)CCl)C1=O (stereo not drawn) [5-I10, 2-chloro-N-{1-[1-(2-fluorophenyl)ethyl]-2-oxopiperidin-3-yl}acetamide] | 80.5
11 | Cc1cc(CN(C(=O)CCl)c2cn(C)nn2)ccc1Cl [5-I12, 2-chloro-N-[(4-chloro-3-methylphenyl)methyl]-N-(1-methyl-1H-1,2,3-triazol-4-yl)acetamide] | 13.7
12 | CN(Cc1ccc(-c2ccc(Cl)cc2)o1)C(=O)CCl [5-I13, 2-chloro-N-{[5-(4-chlorophenyl)furan-2-yl]methyl}-N-methylacetamide] | 16.8
13 | O=C(CCl)N(Cc1ccnn1C1CCC1)C1CC=CCC1 (stereo not drawn) [5-I14, 2-chloro-N-[(1-cyclobutyl-1H-pyrazol-5-yl)methyl]-N-(cyclohex-3-en-1-yl)acetamide] | 0.326
14 | CC(Cl)C(=O)Nc1ccc([N+](=O)[O-])cc1C#N (stereo not drawn) [5-I15, 2-chloro-N-(2-cyano-4-nitrophenyl)propanamide] | 78.6
15 | O=C(CCl)NC1CN(S(=O)(=O)c2ccc3c(c2)OCCO3)C1 [5-I16, 2-chloro-N-[1-(2,3-dihydro-1,4-benzodioxine-6-sulfonyl)azetidin-3-yl]acetamide] | 2.6
16 | Cc1ccc(C2=NN(C(=O)CCl)C(c3cccs3)C2)o1 (stereo not drawn) [5-I17, 2-chloro-1-[3-(5-methylfuran-2-yl)-5-(thiophen-2-yl)-4,5-dihydro-1H-pyrazol-1-yl]ethan-1-one] | 0.348
17 | O=C(CCl)N1CCCCc2ccc([N+](=O)[O-])cc21 [5-I18, 2-chloro-1-(8-nitro-2,3,4,5-tetrahydro-1H-1-benzazepin-1-yl)ethan-1-one] | 1.56
18 | CCN(C(=O)C(C)Cl)C1CCCCC1 (stereo not drawn) [5-I19, 2-chloro-N-cyclohexyl-N-ethylpropanamide] | 134
19 | COc1ccc(N(C(=O)CCl)C2CCS(=O)(=O)C2)cc1 (stereo not drawn) [5-I20, 2-chloro-N-(1,1-dioxo-1lambda6-thiolan-3-yl)-N-(4-methoxyphenyl)acetamide] | 2.54
20 | CC(Cl)C(=O)NC(=O)Nc1ccccc1 (stereo not drawn) [5-I21, 3-(2-chloropropanoyl)-1-phenylurea] | 92.7
21 | N#Cc1cccc(NC2CCN(C(=O)CCl)C2)c1 (stereo not drawn) [5-I22, 3-{[1-(2-chloroacetyl)pyrrolidin-3-yl]amino}benzonitrile] | 2.25
